Measured values published in US20140171357A1, “VANCOMYCIN DERIVATIVES” (Seachald Pharmaceuticals, Inc., priority 2011, published 2014).
In brackets after ≈: the same amount, converted by molar mass.

How the values were obtained:
[1] = system: vancomycin-susceptible E. faecalis (23); assay: MIC broth microdilution, vancomycin-susceptible E. faecalis; settings: E. faecalis, vancomycin-susceptible (23)
[2] = system: vancomycin-intermediate S. aureus (VISA, 5); assay: MIC broth microdilution, VISA
VanC enterococci (22) = assay: MIC broth microdilution, vanC-carrying enterococci; settings: VanC enterococci (22)
[3] = system: Staphylococcus epidermidis (43 strains); assay: MIC broth microdilution, S. epidermidis; settings: S. epidermidis (43)
[4] = system: VanA vancomycin-resistant E. faecalis (11); assay: MIC broth microdilution, VanA E. faecalis; settings: E. faecalis, VanA (11)
[5] = system: VanB vancomycin-resistant E. faecalis (12); assay: MIC broth microdilution, VanB E. faecalis; settings: E. faecalis, VanB (12)
[6] = system: methicillin-resistant S. aureus (MRSA, 22); assay: MIC broth microdilution, MRSA; settings: MRSA (22)
[7] = system: heterogeneous VISA (hVISA, 10); assay: MIC broth microdilution, hVISA
[8] = system: vancomycin-susceptible E. faecium (21); assay: MIC broth microdilution, vancomycin-susceptible E. faecium; settings: E. faecium, vancomycin-susceptible (21)
[9] = system: VanB vancomycin-resistant E. faecium (10); assay: MIC broth microdilution, VanB E. faecium; settings: E. faecium, VanB (10)
S. pneumoniae (22) = assay: MIC broth microdilution, S. pneumoniae; settings: S. pneumoniae (22); MHB + lysed horse blood
[10] = system: VanA vancomycin-resistant E. faecium (10); assay: MIC broth microdilution, VanA E. faecium; settings: E. faecium, VanA (10)
S. aureus ATCC 25923 = assay: Neutropenic murine thigh infection model; settings: for AUCc-t (AUC difference between control and treated animals): 24 h time kill
[11] = system: methicillin-susceptible S. aureus (MSSA, 22); assay: MIC broth microdilution, MSSA; settings: MSSA (22)
[12] = system: Staphylococcus aureus (65 strains); assay: MIC broth microdilution, S. aureus all isolates; settings: S. aureus (65), all resistance subsets
[13] = system: vancomycin-resistant S. aureus (VRSA, 6); assay: MIC broth microdilution, VRSA
[14] = system: β-hemolytic streptococci (23); assay: MIC broth microdilution, β-hemolytic streptococci; settings: β-hemolytic streptococci (23); MHB + lysed horse blood
B. anthracis Sterne 105 = format: cell-based, Bacillus anthracis; settings: Tween 80 0.002% medium, serum condition not stated
[15] = 1 mg/kg single intraperitoneal dose
[16] = 4 mg/kg single intraperitoneal dose
[17] = 16 mg/kg single intraperitoneal dose

Structure (SMILES)	MIC 50% [1] [µg/mL]	MIC 90% [1] [µg/mL]	MIC 50% [2] [µg/mL]	MIC 50% (VanC enterococci (22)) [µg/mL]	MIC 90% (VanC enterococci (22)) [µg/mL]	MIC 50% [3] [µg/mL]	MIC 90% [3] [µg/mL]	MIC 50% [4] [µg/mL]	MIC 90% [4] [µg/mL]	MIC 50% [5] [µg/mL]	MIC 90% [5] [µg/mL]	MIC 50% [6] [µg/mL]	MIC 90% [6] [µg/mL]	MIC 50% [7] [µg/mL]	MIC 90% [7] [µg/mL]	MIC 50% [8] [µg/mL]	MIC 90% [8] [µg/mL]	MIC 50% [9] [µg/mL]	MIC 90% [9] [µg/mL]	MIC 50% (S. pneumoniae (22)) [µg/mL]	other results
CNC(CC(C)C)C(=O)NC1C(=O)NC(CC(N)=O)C(=O)NC2C(=O)NC3C(=O)NC(C(=O)NC(C(=O)O)c4cc(O)c(CNCCOCCOCCOCCN(C)C)c(O)c4-c4cc3ccc4O)C(O)c3ccc(c(Cl)c3)Oc3cc2cc(c3OC2OC(CO)C(O)C(O)C2OC2CC(C)(NCc3ccc(-c4ccc(Cl)cc4)cc3)C(O)C(C)O2)Oc2ccc(cc2Cl)C1O (stereo not shown) [Compound 14]	0.25 (≈ 0.133 µM)	0.25 (≈ 0.133 µM)	0.5 (≈ 0.266 µM)	0.25 (≈ 0.133 µM)	0.5 (≈ 0.266 µM)	0.12 (≈ 0.0638 µM)	0.12 (≈ 0.0638 µM)	8 (≈ 4.25 µM)	16 (≈ 8.5 µM)	0.25 (≈ 0.133 µM)	0.25 (≈ 0.133 µM)	0.12 (≈ 0.0638 µM)	0.12 (≈ 0.0638 µM)	0.12 (≈ 0.0638 µM)	0.12 (≈ 0.0638 µM)	0.12 (≈ 0.0638 µM)	0.12 (≈ 0.0638 µM)	0.12 (≈ 0.0638 µM)	0.12 (≈ 0.0638 µM)	0.06	MIC 90% (S. pneumoniae (22)): 0.12 µg/mL; MIC 50% [10]: 2 µg/mL (≈ 1.06 µM); MIC 90% [10]: 4 µg/mL (≈ 2.13 µM); Max Kill (maximum decrease from initial infection level) (S. aureus ATCC 25923; [15]): 0.83 Log10 CFU/thigh; AUCc-t (AUC difference between control and treated animals) (S. aureus ATCC 25923; [15]): 11.4 (Log10 CFU/thigh)/hr; Max Kill (maximum decrease from initial infection level) (S. aureus ATCC 25923; [16]): 0.19 Log10 CFU/thigh; AUCc-t (AUC difference between control and treated animals) (S. aureus ATCC 25923; [16]): 19.4 (Log10 CFU/thigh)/hr; Max Kill (maximum decrease from initial infection level) (S. aureus ATCC 25923; [17]): 0.03 Log10 CFU/thigh; AUCc-t (AUC difference between control and treated animals) (S. aureus ATCC 25923; [17]): 36.1 (Log10 CFU/thigh)/hr; MIC 50% [11]: 0.12 µg/mL (≈ 0.0638 µM); MIC 90% [11]: 0.25 µg/mL (≈ 0.133 µM); MIC 50% [12]: 0.12 µg/mL (≈ 0.0638 µM); MIC 90% [12]: 0.5 µg/mL (≈ 0.266 µM); MIC 50% [13]: 8 µg/mL (≈ 4.25 µM); MIC 50% [14]: 0.06 µg/mL; MIC 90% [14]: 0.06 µg/mL
CNC(CC(C)C)C(=O)NC1C(=O)NC(CC(N)=O)C(=O)NC2C(=O)NC3C(=O)NC(C(=O)NC(C(=O)O)c4cc(O)c(CNCCOCCOCCN(C)C)c(O)c4-c4cc3ccc4O)C(O)c3ccc(c(Cl)c3)Oc3cc2cc(c3OC2OC(CO)C(O)C(O)C2OC2CC(C)(NCc3ccc(-c4ccc(Cl)cc4)cc3)C(O)C(C)O2)Oc2ccc(cc2Cl)C1O (stereo not shown) [Compound 12]	0.25 (≈ 0.136 µM)	0.25 (≈ 0.136 µM)	0.25 (≈ 0.136 µM)	0.25 (≈ 0.136 µM)	0.5 (≈ 0.272 µM)	0.06 (≈ 0.0326 µM)	0.12 (≈ 0.0653 µM)	8 (≈ 4.35 µM)	16 (≈ 8.7 µM)	0.25 (≈ 0.136 µM)	0.25 (≈ 0.136 µM)	0.12 (≈ 0.0653 µM)	0.12 (≈ 0.0653 µM)	0.12 (≈ 0.0653 µM)	0.12 (≈ 0.0653 µM)	0.12 (≈ 0.0653 µM)	0.12 (≈ 0.0653 µM)	0.12 (≈ 0.0653 µM)	0.12 (≈ 0.0653 µM)	0.06	MIC 90% (S. pneumoniae (22)): 0.06 µg/mL; MIC 50% [10]: 2 µg/mL (≈ 1.09 µM); MIC 90% [10]: 4 µg/mL (≈ 2.18 µM); Max Kill (maximum decrease from initial infection level) (S. aureus ATCC 25923; [15]): 1.1 Log10 CFU/thigh; AUCc-t (AUC difference between control and treated animals) (S. aureus ATCC 25923; [15]): 6.1 (Log10 CFU/thigh)/hr; Max Kill (maximum decrease from initial infection level) (S. aureus ATCC 25923; [16]): −0.03 Log10 CFU/thigh; AUCc-t (AUC difference between control and treated animals) (S. aureus ATCC 25923; [16]): 17.6 (Log10 CFU/thigh)/hr; Max Kill (maximum decrease from initial infection level) (S. aureus ATCC 25923; [17]): 0.0005 Log10 CFU/thigh; AUCc-t (AUC difference between control and treated animals) (S. aureus ATCC 25923; [17]): 29.3 (Log10 CFU/thigh)/hr; MIC 50% [11]: 0.12 µg/mL (≈ 0.0653 µM); MIC 90% [11]: 0.12 µg/mL (≈ 0.0653 µM); MIC 50% [12]: 0.12 µg/mL (≈ 0.0653 µM); MIC 90% [12]: 0.5 µg/mL (≈ 0.272 µM); MIC 50% [13]: 8 µg/mL (≈ 4.35 µM); MIC 50% [14]: 0.06 µg/mL; MIC 90% [14]: 0.06 µg/mL
CNC(CC(C)C)C(=O)NC1C(=O)NC(CC(N)=O)C(=O)NC2C(=O)NC3C(=O)NC(C(=O)NC(C(=O)NCCOCCOCCOCCN(C)C)c4cc(O)c(CNCCOCCOCCOCCN(C)C)c(O)c4-c4cc3ccc4O)C(O)c3ccc(c(Cl)c3)Oc3cc2cc(c3OC2OC(CO)C(O)C(O)C2OC2CC(C)(NCc3ccc(-c4ccc(Cl)cc4)cc3)C(O)C(C)O2)Oc2ccc(cc2Cl)C1O (stereo not shown) [Compound 23]	–	–	–	–	–	–	–	–	–	–	–	–	–	–	–	–	–	–	–	–	MIC (B. anthracis Sterne 105): 0.12 µg/mL (≈ 0.0576 µM)
